Patent US5162538A, “Antiviral new peptides” (Bayer Aktiengesellschaft, priority 1989, dated 1992)

How the values were obtained:
Visna virus = Visna virus test in infected cell culture (cytopathic effect); assay type: cell-based; conditions: sheep fibroblast cells infected with Visna virus, MOI approx. 0.05, 7 days at 37° C., non-cytotoxic concentrations
Experimental: This was shown by way of example for the Visna virus.
The Visna virus and the HIV virus both belong to the retrovirus subfamily of lentiviruses.
In cell cultures which are infected with Visna virus, pronounced, virus-induced, cytopathic effects appear 5 to 10 days after infection. By treating the infected cell cultures with compounds according to the invention, it was possible to prevent the appearance of these cytopathic effects.
The Visna virus test was carried out according to the method of O. Narayan et al., Journal of Infectious Diseases 135, 5, 1977, 800-806. For this, a compound according to the invention was diluted to non-cytotoxic concentrations in the culture medium in 96-well microtiter plates. Sheep fibroblast cells (5×10^4 cells per well) in production medium were then added to each well. Each well then received 15 μl of a Visna virus solution having a titer of approx. 2.5×10^4 TCID50 (TCID=tissue culture infections dose). This virus dose corresponds to a MOI (multiplicity of infection) of approx. 0.05.
Under these infection conditions, a virus-induced, cytopathic effect resulted between day 5 and day 10 in an infection control without substance. The infected and treated cells and the control cells were incubated for 7 days at 37° C. and 5% CO2. […]

HIV protease = biological target: T1, HIV protease (Human immunodeficiency virus type 1 group M subtype B, UniProt P04585); experiment: HIV-specific protease enzyme test (RP-HPLC analysis of synthetic peptide cleavage); assay type: biochemical; conditions: purified HIV protease incubated with synthetic peptide imitating a Gag-precursor cleavage site; 50% inhibition of protease activity
T1 construct: purified HIV protease was incubated with synthetic peptide
Experimental: The compounds of the general formula (I) have extraordinarily strong action against retroviruses. This was proven by experiments using the HIV-specific protease enzyme test.
The result of the example below was obtained using the HIV-test system described in the following reference [cf. Hansen, J., Billich, S., Schulze, T., Sukrow, S. and Molling, K. (1988), EMBO Journal, Vol. 7, No. 6, pp. 1785-1791]: purified HIV protease was incubated with synthetic peptide which imitates a cleavage site in the Gag-precursor protein and represents an in vivo cleavage site of HIV protease. The resulting cleavage products of the synthetic peptide were analyzed by reverse-phase high performance liquid chromatography (RP-HPLC). The IC50 value relates to the substance concentration which causes 50% inhibition of protease activity under the abovementioned test conditions.

Nα-{Nδ-[1-(1-oxo)ethyl-[1-(5-S-amino-6-cyclohexyl-4-S-hydroxy-2-(1-methyl)ethylhexanoyl)]]-S-isoleucinyl}-2-pyridylmethylamide [Example I]
protection from virus-induced cytopathic effect / cell destruction (Visna virus): protected the cells infected with Visna virus from the virus-induced cell destruction
IC50 (HIV protease): 0.5 nM
